Laboratory results reported in article PMC4125160, “Neurotoxicity and Mode of Action of N, N-Diethyl-Meta-Toluamide (DEET)” (PLoS ONE, 2014).
In brackets after ≈: the same amount, converted by molar mass.

Key:
Aedes aegypti = assay: Topical toxicity bioassay on adult females; type: in vivo; conditions: for signs of intoxication: DEET lethal doses, propoxur 1 ng/insect, five minutes after treatment; for LD50 (95% CI): topical application, ng of compound/mg body weight, 24 hr
Procedure: (§1) Topical toxicity bioassays on adult female mosquitoes were performed based on the method of Pridgeon et al.. Briefly, insects were chilled on ice for 3 min, during which the appropriate volume (200 nL for mosquitoes, 1 µL for Musca) of chemical (dissolved in 95% ethanol) was applied onto the abdomen using a handheld Hamilton microapplicator. For each inhibitor, five doses were applied to groups of ten insects each and repeated three times. An ethanol-only treatment was included in each experiment as a negative control. Insects were transferred into a holding chamber post-treatment and supplied with free access to sugar water for the duration of the experiment. […] Three LD50 values were obtained and the mean LD50 value was calculated and used for statistical analysis.
(§2) For all toxicity assays, control mortality was corrected for using Abbots formula [19]; where corrected percent mortality = (% alive in control–% alive in treated) /% alive in control.

firefly light organ = assay: In vivo assay for effects on firefly light organ; design: species or system Photinus pyralis
Procedure: Adult firefly beetles (Photinus sp.) were collected locally (Nashville, TN) and housed in well-ventilated chambers with tree leaves. The animals had free access to 10% sucrose solution. Chemicals were dissolved in absolute ethanol and 1 µL was topically applied directly to the ventral light organ with the use of a manual pipettor. Prior to DEET application, the beetles were immobilized with molten parafilm and were mounted on corrugated cardboard for the duration of the study. Due to the time required for bioactivation of CDM, insects were treated with 1 µL of CDM and were released back into the holding chamber for three hours. After three hours, they were mounted in the previously described manner and monitored for activation of the lantern. Photographs were captured with a handheld camera (Canon PowerShot SX110 IS). Pictures were captured within five minutes, four hours, and 10 minutes post application for DEET, CDM, and propoxur, respectively. DEET- and propoxur-treated insects were monitored for at least 1 hour post exposure to ensure the response was not slow acting. The original photographs were cropped and background shadows were enhanced to increase detail of the insect using Adobe Photoshop PS5 (Adobe Systems, San Jose, CA, USA). The color or brightness of the light organ was not manipulated in any way during post-processing of the image.

[1] = tested on: octopamine receptors of Sf21 cells; assay: Calcium fluorescence assay in Sf21 cells; type: cell-based; conditions: 100 µM
Procedure: The Sf21 insect cell line was obtained from a commercial supplier (Invitrogen, Carlsbad, CA, USA) and maintained in log phase culture in Trichoplusia ni Medium-Formulation Hink (TNM-FH) from Sigma-Aldrich (St. Louis, MO, USA), supplemented with 10% fetal bovine serum and 100 U/ml penicillin and streptomycin (Sigma-Aldrich). Cells were cultured in a non-humidified environment and maintained at 27°C. Sf21 cells were passaged every 3–5 days according to manufacturer's instructions, and maintained for about 30 passes before being replaced by fresh cells.
Sf21 cells were plated into 96-well black-wall, clear bottom plates 24 h before calcium fluorescence assay. […] The octopamine receptor antagonist phentolamine (100 µM) was co-incubated with cells for 1 h before drug challenge. Phentolamine, octopamine, and DEET were dissolved in water, while propoxur was dissolved in 100% DMSO to make a stock solution, and in the assay, DMSO was kept to 0.1%. The experiment was repeated in triplicate with different plates of cells to obtain means and SEMs for each experimental condition.

[2] = tested on: neuromuscular junction of third instar Musca domestica larvae; assay: Neuromuscular junction recordings of evoked EPSP in housefly larvae; conditions: for effect on evoked EPSP in words: toluene at 5 mM
Procedure: Neuromuscular recordings of the evoked excitatory postsynaptic potential (EPSP) were performed on third instar housefly larvae, essentially as described previously. In short, the maggot was immobilized with pins, and the nervous and musculature systems were exposed. The preparation was then bathed in saline containing: 140 mM NaCl, 0.75 mM CaCl2, 5 mM KCl, 4 mM MgCl2, 5 mM NaHCO3, and 5 mM HEPES (pH = 7.25). The nerves were severed from the base of the CNS, which was removed, and a lateral nerve trunk innervating the longitudinal muscles was drawn into a suction electrode filled with saline. Stimuli were applied at 1 volt and of 0.2 sec duration to elicit a contraction from the longitudinal muscles. The stimulated muscle was then impaled with a recording glass capillary microelectrode filled with 1 M KCl to record effects on the evoked EPSP and membrane potential. Signals from all recordings were amplified and digitized with the use of the MacLab. Chemicals were applied to the preparation directly by hand pipetting 150 µL of solution into the bath volume of 150 µL.

[3] = tested on: Anopheles gambiae AKRON (pyrethroid and anticholinesterase resistance); assay: WHO filter paper contact toxicity bioassay; type: in vivo; conditions: WHO filter paper assay, 1 h exposure, mortality at 24 h, read-out: LC50 (95% CI)
Procedure: (§3) Contact toxicity bioassays were performed on both strains of Anopheles gambiae, G3 (susceptible) and AKRON (pyrethroid and anticholinesterase resistance) according to WHO protocol. Adult female mosquitoes were 2–5 days of age and non-blood fed at the time of experimentation. Five concentrations of inhibitor dissolved in ethanol were prepared and treated by applying 2 mL of each concentration on a 180 cm^2 (12 cm×15 cm) paper. Papers were left to dry for 24 hours prior to use. Mosquitoes were chilled for three minutes on ice, after which 25 females were placed in the WHO kit holding chamber to recover for one hour. Mosquitoes were then moved to the treatment chamber, which contain the treated paper, and exposed for one hour. After the one-hour exposure, the mosquitoes were transferred back to the holding chamber and maintained on 10% sugar solution for 24 hrs. Each concentration was repeated in triplicate. […] Three LC50 values were obtained and the mean LC50 value was used for statistical analysis.
as §2

[4] = tested on: Anopheles gambiae G3 (susceptible); assay: WHO filter paper contact toxicity bioassay; type: in vivo; conditions: WHO filter paper assay, 1 h exposure, mortality at 24 h, read-out: LC50 (95% CI)
Procedure: as §3, §2

Ae. aegypti = assay: WHO filter paper contact toxicity bioassay; type: in vivo; conditions: Aedes aegypti; WHO filter paper assay, 1 h exposure, mortality at 24 h; read-out: LC50 (95% CI)
mosquitoes = assay: Toxicity to mosquitoes (abstract summary); type: in vivo
Procedure: as §1

[5] = tested on: housefly larval central nervous system; assay: Neurophysiological recordings of CNS nerve discharge in housefly larvae; conditions: Musca domestica; intact CNS; value (95% CI); read-out: EC50, excitation of nerve firing

| Structure (SMILES) | signs of intoxication (Aedes aegypti) | LD50 (95% CI) (Aedes aegypti) | lantern illumination (firefly light organ; 1 µg topically on light organ) | effect on calcium fluorescence in words [1] | effect on evoked EPSP in words [2] | LC50 [3] | LC50 [4] | LC50 (Ae. aegypti) | lantern illumination (firefly light organ; 5 µg topically on light organ) | period the lantern remained active (firefly light organ; 5 µg, majority of individuals) | lantern illumination (firefly light organ; 1 and 2.5 µg topically on light organ) | interval of repeated activation of the lantern (firefly light organ; controls flashed every 45-90 seconds) | increase in calcium fluorescence ([1]; over control cells) | time to complete block ([2]; 10 mM added to the bath) | change in muscle membrane resting potential ([2]; any concentration) | concentration at which half of the preparations were blocked ([2]; evoked EPSP, all or none response) | LD50 (mosquitoes) | EC50 [5] |
| --- | --- | --- | --- | --- | --- | --- | --- | --- | --- | --- | --- | --- | --- | --- | --- | --- | --- | --- |
| CNC(=O)Oc1ccccc1OC(C)C [propoxur] | intense hyperexcitation in the absence of any physical stimulation | 1.4 (95% CI: 0.9–2.1) ng/mg | no changes in lantern illumination | no effect | no effect |  |  |  |  |  |  |  |  |  |  |  |  |  |
| CCN(CC)C(=O)c1cccc(C)c1 [DEET, N, N-diethyl-meta-toluamide] | both hyperexcitatory and lethargic tendencies | 1102 (836–1367)a ng/mg |  |  | complete and rapid block | 2700 µg/mL (≈ 14.1 mM) | 1900 µg/mL (≈ 9.93 mM) | 2300 µg/mL (≈ 12 mM) | Bright and complete illumination of the lantern | 10 to 60 s | Faint illumination in circumscribed areas of the lantern | 10 to 20 s | ca. 30% | approximately 120 seconds | Little or no change | ca. 7 mM | ca. 1.5 µg/mg | 210 µM |
